Several values for one entry are separate records, joined by “and”; a condition that tells them apart may be missing. Equal values may be shown once.
Test system: 922993-354-T-J3-PDC complex spheroids, viability
Assay: Anticancer human tumor 922993-354-T-J3-PDC patient-derived endometrial carcinoma cell line growth inhibition [GQUAD]
Conditions: for viability, T/C: stronger effect = lower value; active = viability on the fitted dose curve at most 10% of control; inactive = the rest
Text: DNA G-quadruplex Stabilizer Agents in Combinations in Complex Spheroids
A high-throughput screen of multi-cell type tumor spheroids was designed to identify active combinations of DNA G-quadruplex stabilizer agents and targeted small molecules. Complex spheroids include a stromal component modeled by human endothelial cells (HUVEC) and fibroblasts modeled by human mesenchymal stem cells (MSCs). The concentration ranges selected for each drug and investigational agent were based upon clinically achievable concentrations if the clinical Cmax of the agent was known.
Compounds. The drugs and investigational agents: pidnarulex (CX-5461; NSC782164), APTO-253 (NSC789042), BRACO-19 (NSC847499), peposertib (NSC802822), ceralasertib (NSC780249), elimusertib (NSC800525), camonsertib (NSC841442), AZD-1390 (NSC803789), olaparib (NSC753686), talazoparib (NSC767125), ART-558 (NSC835418), sotorasib (NSC818433), MRTX-1133 (NSC836407), SN-38 (NSC673596), topotecan (NSC609699), etoposide (NSC141540), doxorubicin (NSC123127), gemcitabine (NSC613327), 5-fluorouracil (NSC19893), paclitaxel (NSC125973), vemurafenib (NSC761431), panobinostat (NSC761190), R-306465 (JNJ-16241199; NSC773264), adavosertib (NSC754352), TP-3654 (NSC805149), carboplatin (NSC241240), KSQ-4279 (NSC840948), and staurosporine (NSC755774) were obtained from the National Cancer Institute (NCI) Developmental Therapeutics Program Chemical Repository (34). The FDA-approved anticancer drug set is available from the NCI Developmental Therapeutics Program. […] The stock solutions were prepared in dimethyl sulfoxide (DMSO, Sigma-Aldrich, St. Louis, MO, cat. D2650) at 800-fold the tested concentration and stored at -70 degrees C prior to their use. All drugs and investigational agents were tested over a range starting from a high concentration at or near the clinical Cmax and decreasing in half-log increments. If the clinical Cmax for an agent had not been determined, the highest concentration tested was 10 microM.
2.3 Cell Culture. All cells were maintained in an incubator at 37 degrees C and 5% CO2 with 95% humidity. The PDC lines were cultured according to standard operating procedures established by the NCI PDMR. All PDCs were thawed and cultured in Matrigel-coated flasks prepared with a working solution of 1X Ham's F-12 nutrient mix, without supplementation (Invitrogen, cat. 11765054), 100 U/mL penicillin-streptomycin (Invitrogen, cat. 15140122), and 2.5% Matrigel (Corning Inc., cat. 354248) for the first three passages. The 857933-349-R-J2-PDC line was cultured in 6C/Colon 1B media, which includes advanced DMEM/F-12 (Thermo Fisher Scientific, cat. 12634028), 10 mM HEPES (Thermo Fisher Scientific, cat. 15630080), 1X GlutaMAX supplement (Thermo Fisher Scientific, cat. 35050061), 0.1 mg/mL primocin (InvivoGen, cat. ant-pm-2), 10% defined fetal bovine serum, heat inactivated (HyClone Laboratories Inc., cat. SH30070.03HI), 50% L-WRN conditioned media (ATCC, cat. CRL-3276), 1.25 mM N-Acetyl-L-cysteine (Sigma-Aldrich, cat. A9165), 10 mM nicotinamide (Sigma-Aldrich, cat. N0636), 1X B-27 supplement (Thermo Fisher Scientific, cat. 17504044), 1X N-2 supplement (Thermo Fisher Scientific, cat. 17502048), 10 microM Y-27632 dihydrochloride (Tocris Bioscience, cat. 1254), and 50 ng/mL human EGF recombinant protein (Thermo Fisher Scientific, cat. PHG0311). The 485176-168-R4-J1-PDC line was cultured in Panc media, which includes all 6C/Colon 1B media components plus 100 ng/mL human FGF-10 (Thermo Fisher Scientific, cat. 100-26), 500 nM SB-431542 (Selleckchem, cat. S1067), and gastrin (Tocris, cat. 3006).
[…]
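Note: spheroids exposed to compounds for seven days.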

Cn1ncnc1[C@H]1c2n[nH]c(=O)c3cc(F)cc(c23)N[C@@H]1c1ccc(F)cc1
> 316 nM: IC50 (curve of compound)
inactive: viability, T/C (compound 0.000999 µM) 93.3% and 98.8% and 108% | viability, T/C (compound 0.00316 µM) 101% and 78.7% and 113% | viability, T/C (compound 0.00999 µM) 76.9% and 101% and 85.8% | viability, T/C (compound 0.0316 µM) 87.9% and 74.9% and 91.4% | viability, T/C (compound 0.0999 µM) 68.9% and 72% and 78.9% | viability, T/C (compound 0.316 µM) 54.5% and 62% and 59.1%

CC[C@@]1(O)C(=O)OCc2c1cc1n(c2=O)Cc2cc3c(CN(C)C)c(O)ccc3nc2-1
inactive: viability, T/C (compound 0.000999 µM) 111% and 105% and 82.9% | viability, T/C (compound 0.00316 µM) 80.6% and 108% and 97.9% | viability, T/C (compound 0.00999 µM) 113% and 76.5% and 112% | viability, T/C (compound 0.0316 µM) 85.2% and 98.8% and 103% | viability, T/C (compound 0.0999 µM) 71% and 84.4% and 94.9% | viability, T/C (compound 0.316 µM) 48.6% and 38.9% and 38.2%
298 nM and 241 nM and 249 nM: IC50 (curve of compound)

CC1COCCN1c1cc(C2(S(C)(=N)=O)CC2)nc(-c2ccnc3[nH]ccc23)n1 (stereo not given)
inactive: viability, T/C (compound 0.0316 µM) 99.8% and 96.6% and 97.3% | viability, T/C (compound 0.1 µM) 93.4% and 96.7% and 96.8% | viability, T/C (compound 0.316 µM) 91.8% and 84.6% and 95.6% | viability, T/C (compound 1 µM) 106% and 98.6% (2×) | viability, T/C (compound 3.16 µM) 93.7% and 129% and 92.5% | viability, T/C (compound 10 µM) 65.3% and 70.4% and 60.7%
> 10000 nM: IC50 (curve of compound)

Nc1ccn(C2OC(CO)C(O)C2(F)F)c(=O)n1 (stereo not given)
< 31.6 nM: IC50 (curve of compound)
inactive: viability, T/C (compound 0.0316 µM) 22.6% and 12.1% and 26.3% | viability, T/C (compound 0.1 µM) 22% and 11.3% and 23.6% | viability, T/C (compound 0.316 µM) 28% and 12.5% and 23.7% | viability, T/C (compound 1 µM) 24.6% and 13.1% and 30.6% | viability, T/C (compound 3.16 µM) 23.4% and 12.9% and 18.8% | viability, T/C (compound 10 µM) 20.9% and 11.3% and 20.8%

Nc1ccn(C2OC(CO)C(O)C2(F)F)c(=O)n1 (stereo not given) + Cc1[nH]c2ccc(F)cc2c1-c1nc2c3cccnc3c3ncccc3c2[nH]1
< 31.6 nM: IC50 (curve of first compound, second compound 0.0316 µM) | IC50 (curve of first compound, second compound 0.1 µM) | IC50 (curve of first compound, second compound 0.316 µM) | IC50 (curve of first compound, second compound 1 µM) | IC50 (curve of first compound, second compound 3.16 µM) | IC50 (curve of first compound, second compound 10 µM)
inactive: viability, T/C (second compound 0.0316 µM, first compound 0.0316 µM) 25.1% | viability, T/C (second compound 0.0316 µM, first compound 0.1 µM) 27.1% | viability, T/C (second compound 0.0316 µM, first compound 0.316 µM) 25.2% | viability, T/C (second compound 0.0316 µM, first compound 1 µM) 18.3% | viability, T/C (second compound 0.0316 µM, first compound 3.16 µM) 22.5% | viability, T/C (second compound 0.0316 µM, first compound 10 µM) 21.7% | viability, T/C (second compound 0.1 µM, first compound 0.0316 µM) 25.6% | viability, T/C (second compound 0.1 µM, first compound 0.1 µM) 23.2% | viability, T/C (second compound 0.1 µM, first compound 0.316 µM) 23.9% | viability, T/C (second compound 0.1 µM, first compound 1 µM) 21.1% | viability, T/C (second compound 0.1 µM, first compound 3.16 µM) 23% | viability, T/C (second compound 0.1 µM, first compound 10 µM) 22.9% | viability, T/C (second compound 0.316 µM, first compound 0.0316 µM) 25.1% | viability, T/C (second compound 0.316 µM, first compound 0.1 µM) 23.4% | viability, T/C (second compound 0.316 µM, first compound 0.316 µM) 24% | viability, T/C (second compound 0.316 µM, first compound 1 µM) 19.2% | viability, T/C (second compound 0.316 µM, first compound 3.16 µM) 22.7% | viability, T/C (second compound 0.316 µM, first compound 10 µM) 22.1% | viability, T/C (second compound 1 µM, first compound 0.0316 µM) 22.4% | viability, T/C (second compound 1 µM, first compound 0.1 µM) 25.7% | viability, T/C (second compound 1 µM, first compound 0.316 µM) 20.1% | viability, T/C (second compound 1 µM, first compound 1 µM) 26.4% | viability, T/C (second compound 1 µM, first compound 3.16 µM) 24.2% | viability, T/C (second compound 1 µM, first compound 10 µM) 21.7% | viability, T/C (second compound 3.16 µM, first compound 0.0316 µM) 22.6% | viability, T/C (second compound 3.16 µM, first compound 0.1 µM) 29.2% | viability, T/C (second compound 3.16 µM, first compound 0.316 µM) 23.3% | viability, T/C (second compound 3.16 µM, first compound 1 µM) 20.4% | viability, T/C (second compound 3.16 µM, first compound 3.16 µM) 27% | viability, T/C (second compound 3.16 µM, first compound 10 µM) 18.3% | viability, T/C (second compound 10 µM, first compound 0.0316 µM) 27.6% | viability, T/C (second compound 10 µM, first compound 0.1 µM) 22.3% | viability, T/C (second compound 10 µM, first compound 0.316 µM) 27% | viability, T/C (second compound 10 µM, first compound 1 µM) 23.4% | viability, T/C (second compound 10 µM, first compound 3.16 µM) 26.3% | viability, T/C (second compound 10 µM, first compound 10 µM) 26.3%

From PubChem BioAssay AID2060489 (Molecular Pharmacology Branch, DTP, NCI, 2025)
